Patent US10072026B2, “Crystalline form of 3-((1R,3s,5S)-3-((7-((5-methyl-1H-pyrazol-3-yl)amino)-1,6-naphthyridin-5-yl)amino)-8-azabicyclo[3.2.1]octan-8-yl)propanenitrile” (priority 2015, dated 2018)
Like-named read-outs stand apart in the source and are kept apart here.

What was measured:
[1] = system: IL-13 induced STAT6 phosphorylation in BEAS-2B human lung epithelial cells; assay: AlphaScreen cellular JAK potency assay, BEAS-2B; conditions: for BEAS2B pIC50: IL-13 induced STAT6 phosphorylation, BEAS-2B cells
[2] = system: IL-4 induced STAT6 phosphorylation in THP-1 human monocytic cells; assay: Cellular JAK potency assay, THP-1
JAK2 = JAK2 (Homo sapiens (Human), UniProt O60674); assay: LanthaScreen JAK biochemical assay (JAK2); conditions: for Ki: read-out: JAK 2 (pKi) (converted)
JAK2, sequence (O60674 whole entry): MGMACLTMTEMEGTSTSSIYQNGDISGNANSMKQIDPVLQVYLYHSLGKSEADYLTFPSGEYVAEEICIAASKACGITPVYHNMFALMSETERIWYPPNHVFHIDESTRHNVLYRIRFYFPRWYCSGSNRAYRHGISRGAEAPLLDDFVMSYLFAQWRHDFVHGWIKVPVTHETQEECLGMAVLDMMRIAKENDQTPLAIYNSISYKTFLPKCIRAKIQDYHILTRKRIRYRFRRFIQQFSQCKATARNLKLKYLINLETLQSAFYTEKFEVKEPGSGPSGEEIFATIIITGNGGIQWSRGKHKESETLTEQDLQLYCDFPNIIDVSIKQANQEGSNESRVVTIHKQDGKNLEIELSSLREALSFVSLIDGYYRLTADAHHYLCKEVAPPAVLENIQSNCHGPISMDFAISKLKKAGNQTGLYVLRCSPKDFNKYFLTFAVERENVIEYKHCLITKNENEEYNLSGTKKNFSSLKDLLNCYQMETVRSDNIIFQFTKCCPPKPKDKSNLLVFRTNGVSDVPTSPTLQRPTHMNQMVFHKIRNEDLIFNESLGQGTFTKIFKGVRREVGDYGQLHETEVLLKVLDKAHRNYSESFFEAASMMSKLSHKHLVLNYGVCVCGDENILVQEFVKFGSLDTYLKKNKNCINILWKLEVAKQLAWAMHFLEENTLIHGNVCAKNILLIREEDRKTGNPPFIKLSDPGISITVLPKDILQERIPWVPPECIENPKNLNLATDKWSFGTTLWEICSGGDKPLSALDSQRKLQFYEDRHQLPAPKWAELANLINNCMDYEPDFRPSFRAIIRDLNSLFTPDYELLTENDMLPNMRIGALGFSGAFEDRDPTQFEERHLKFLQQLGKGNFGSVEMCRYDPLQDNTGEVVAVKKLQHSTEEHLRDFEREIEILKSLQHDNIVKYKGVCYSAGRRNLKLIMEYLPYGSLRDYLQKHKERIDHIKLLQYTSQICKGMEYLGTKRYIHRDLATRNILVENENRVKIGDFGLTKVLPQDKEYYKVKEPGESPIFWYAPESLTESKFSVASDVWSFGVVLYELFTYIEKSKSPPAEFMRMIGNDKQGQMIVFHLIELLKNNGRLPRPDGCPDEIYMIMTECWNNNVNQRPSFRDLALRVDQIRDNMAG

JAK1 = JAK1 (Homo sapiens (Human), UniProt P23458); assay: LanthaScreen JAK biochemical assay (JAK1)
JAK1, sequence (P23458 whole entry): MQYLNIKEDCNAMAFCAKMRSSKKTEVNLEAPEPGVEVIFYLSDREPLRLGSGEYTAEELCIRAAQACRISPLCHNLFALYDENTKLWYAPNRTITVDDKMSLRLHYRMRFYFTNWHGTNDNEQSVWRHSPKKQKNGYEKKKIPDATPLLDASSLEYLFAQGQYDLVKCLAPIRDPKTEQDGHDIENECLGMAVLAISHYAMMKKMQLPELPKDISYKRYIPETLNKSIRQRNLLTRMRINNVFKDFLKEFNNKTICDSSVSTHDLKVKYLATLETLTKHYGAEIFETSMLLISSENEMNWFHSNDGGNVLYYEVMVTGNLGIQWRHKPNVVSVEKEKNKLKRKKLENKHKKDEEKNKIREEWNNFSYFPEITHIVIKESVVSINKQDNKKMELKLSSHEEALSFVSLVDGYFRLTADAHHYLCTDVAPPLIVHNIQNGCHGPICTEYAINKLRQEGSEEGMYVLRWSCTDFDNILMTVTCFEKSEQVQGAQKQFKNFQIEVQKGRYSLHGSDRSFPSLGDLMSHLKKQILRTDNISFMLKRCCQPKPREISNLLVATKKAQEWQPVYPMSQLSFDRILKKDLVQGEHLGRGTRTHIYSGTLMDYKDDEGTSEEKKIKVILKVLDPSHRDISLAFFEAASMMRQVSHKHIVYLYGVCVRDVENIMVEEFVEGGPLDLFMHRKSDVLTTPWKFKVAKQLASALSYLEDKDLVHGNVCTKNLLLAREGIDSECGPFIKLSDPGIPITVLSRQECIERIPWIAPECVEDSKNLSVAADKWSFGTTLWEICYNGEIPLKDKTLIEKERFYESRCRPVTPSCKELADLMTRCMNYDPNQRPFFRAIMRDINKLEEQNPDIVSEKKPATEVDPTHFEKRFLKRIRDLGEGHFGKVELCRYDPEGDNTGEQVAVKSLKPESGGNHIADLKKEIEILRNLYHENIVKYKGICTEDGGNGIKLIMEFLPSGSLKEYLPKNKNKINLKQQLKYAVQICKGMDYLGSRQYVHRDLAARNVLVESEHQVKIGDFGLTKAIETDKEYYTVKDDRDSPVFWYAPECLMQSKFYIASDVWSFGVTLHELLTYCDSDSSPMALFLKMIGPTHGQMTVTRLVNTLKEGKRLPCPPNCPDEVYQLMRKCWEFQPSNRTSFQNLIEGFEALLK

[3] = Homo sapiens, THP-1, read-out: THP-1 IL4 pIC50 (converted)
[4] = IL-4 induced STAT6 phosphorylation, THP-1 cells
[5] = read-out: JAK 1 (pKi) (converted)
[6] = THP-1 cells, IL-4 induced STAT6 phosphorylation

SMILES | JAK 2 (pKi) (JAK2) | JAK 1 (pKi) (JAK1) | THP-1 IL4 pIC50 [2, 6] | also measured
Cc1cc(Nc2cc3ncccc3c(N[C@@H]3C[C@H]4CCC[C@@H](C3)N4Cc3ccc(C#N)nc3)n2)n[nH]1 [Example 1-54] |  |  |  | BEAS2B pIC50 [1]: B (B represents a pEC50 value between 6.7 and 7.5 (EC50 between 200 nM and 32 nM))
Cc1cc(Nc2cc3ncccc3c(N[C@@H]3C[C@H]4CC[C@@H](C3)N4S(=O)(=O)C3CNC3)n2)n[nH]1 [Example 4-9] |  |  |  | IC50 [2, 3]: > 200 nM; Ki (JAK2): 0.1 to 1 nM; Ki (JAK1): 0.1 to 1 nM
Cc1cc(Nc2cc3ncccc3c(N[C@@H]3C[C@H]4CCC[C@@H](C3)N4S(=O)(=O)Cc3ccccc3)n2)n[nH]1 [Example 4-24] | B (B represents a pKi value between 9 and 10 (Ki between 1 nM and 0.1 nM)) | B (B represents a pKi value between 9 and 10 (Ki between 1 nM and 0.1 nM)) |  | THP-1 IL4 pIC50 [2, 4]: B (B represents a pEC50 value between 6.7 and 7.5 (EC50 between 200 nM and 32 nM))
Cc1ccc(S(=O)(=O)N2[C@@H]3CCC[C@H]2C[C@H](Nc2nc(Nc4cc(C)[nH]n4)cc4ncccc24)C3)cn1 [Example 4-25] | B (B represents a pKi value between 9 and 10 (Ki between 1 nM and 0.1 nM)) | B (B represents a pKi value between 9 and 10 (Ki between 1 nM and 0.1 nM)) |  | THP-1 IL4 pIC50 [2, 4]: A (A represents a pEC50 value≥7.5 (EC50≤32 nM))
Cc1cc(Nc2cc3ncccc3c(N[C@@H]3C[C@H]4CCC[C@@H](C3)N4S(=O)(=O)N3CCCC3)n2)n[nH]1 [Example 4-27] |  |  |  | THP-1 IL4 pIC50 [2, 4]: A (A represents a pEC50 value≥7.5 (EC50≤32 nM)); BEAS2B pIC50 [1]: A (A represents a pEC50 value≥7.5 (EC50≤32 nM))
CCS(=O)(=O)N1[C@@H]2CC[C@H]1C[C@H](Nc1nc(Nc3cc(C)[nH]n3)cc3nc(CN4CCOCC4)ccc13)C2 [Example 5-16] |  |  |  | IC50 [2, 3]: 31.6 to 200 nM; IC50 ([1]; Homo sapiens, BEAS-2B, read-out: BEAS2B pIC50 (converted)): 31.6 to 200 nM
C=CCOC(=O)N1[C@@H]2CC[C@H]1C[C@H](Nc1nc(Nc3cc(C)[nH]n3)cc3nc(CN4CCOCC4)ccc13)C2 [Example 5-17] |  |  |  | THP-1 IL4 pIC50 [2, 4]: B (B represents a pEC50 value between 6.7 and 7.5 (EC50 between 200 nM and 32 nM)); BEAS2B pIC50 [1]: A (A represents a pEC50 value≥7.5 (EC50≤32 nM))
Cc1cc(Nc2cc3nc(CN4CCC(F)(F)CC4)ccc3c(N[C@@H]3C[C@H]4CC[C@@H](C3)N4S(=O)(=O)c3cncc(F)c3)n2)n[nH]1 [Example 5-31] |  |  |  | IC50 [2, 3]: 31.6 to 200 nM; Ki (JAK2): 0.1 to 1 nM; Ki (JAK1): 0.1 to 1 nM
Cc1cc(Nc2cc3nc(CN4CCN(C)CC4)ccc3c(N[C@@H]3C[C@H]4CC[C@@H](C3)N4S(=O)(=O)c3cncc(F)c3)n2)n[nH]1 [Example 5-40] |  |  |  | IC50 [2, 3]: 31.6 to 200 nM; Ki (JAK2): 0.1 to 1 nM; Ki (JAK1; [5]): 0.1 to 1 nM
Cc1cc(Nc2cc3nc(CS(C)(=O)=O)ccc3c(N[C@@H]3C[C@H]4CC[C@@H](C3)N4CCCF)n2)n[nH]1 [Example 5-42] | B (B represents a pKi value between 9 and 10 (Ki between 1 nM and 0.1 nM)) | B (B represents a pKi value between 9 and 10 (Ki between 1 nM and 0.1 nM)) |  | THP-1 IL4 pIC50 [2, 4]: C (C represents a pEC50 value<6.7 (EC50>200 nM))
COc1cnc2cc(Nc3cc(C)[nH]n3)nc(N[C@@H]3C[C@H]4CC[C@@H](C3)N4CCCC#N)c2c1 [Example 6-12] | B (B represents a pKi value between 9 and 10 (Ki between 1 nM and 0.1 nM)) | B (B represents a pKi value between 9 and 10 (Ki between 1 nM and 0.1 nM)) | B (B represents a pEC50 value between 6.7 and 7.5 (EC50 between 200 nM and 32 nM)) | 
COC(=O)c1cnc2cc(Nc3cc(C)[nH]n3)nc(N[C@@H]3C[C@H]4CC[C@@H](C3)N4CCC#N)c2c1 [Example 6-32] | A (A represents a pKi value≥10 (Ki≤0.1 nM)) | A (A represents a pKi value≥10 (Ki≤0.1 nM)) | A (A represents a pEC50 value≥7.5 (EC50≤32 nM)) | 
CCC(=O)N1[C@@H]2CC[C@H]1C[C@H](Nc1nc(Nc3cc(C)[nH]n3)cc3ncc(C(=O)OC)cc13)C2 [Example 6-36] |  |  |  | IC50 [2, 3]: 31.6 to 200 nM; Ki (JAK2): 0.1 to 1 nM; Ki (JAK1; [5]): 0.1 to 1 nM
C=CCOC(=O)N1[C@@H]2CC[C@H]1C[C@H](Nc1nc(Nc3cc(C)[nH]n3)cc3ncc(C(=O)OC)cc13)C2 [Example 6-40] | B (B represents a pKi value between 9 and 10 (Ki between 1 nM and 0.1 nM)) | B (B represents a pKi value between 9 and 10 (Ki between 1 nM and 0.1 nM)) | A (A represents a pEC50 value≥7.5 (EC50≤32 nM)) | 
COC(=O)c1cnc2cc(Nc3cc(C)[nH]n3)nc(N[C@@H]3C[C@H]4CC[C@@H](C3)N4CCF)c2c1 [Example 6-43] | B (B represents a pKi value between 9 and 10 (Ki between 1 nM and 0.1 nM)) | B (B represents a pKi value between 9 and 10 (Ki between 1 nM and 0.1 nM)) | B (B represents a pEC50 value between 6.7 and 7.5 (EC50 between 200 nM and 32 nM)) | 
COC(=O)c1cnc2cc(Nc3cc(C)[nH]n3)nc(N[C@@H]3C[C@H]4CC[C@@H](C3)N4CCC(F)(F)F)c2c1 [Example 6-45] | B (B represents a pKi value between 9 and 10 (Ki between 1 nM and 0.1 nM)) | B (B represents a pKi value between 9 and 10 (Ki between 1 nM and 0.1 nM)) | B (B represents a pEC50 value between 6.7 and 7.5 (EC50 between 200 nM and 32 nM)) | 
COC(=O)c1cnc2cc(Nc3cc(C)[nH]n3)nc(N[C@@H]3C[C@H]4CC[C@@H](C3)N4C[C@H]3CCC(=O)O3)c2c1 [Example 6-46] | B (B represents a pKi value between 9 and 10 (Ki between 1 nM and 0.1 nM)) | B (B represents a pKi value between 9 and 10 (Ki between 1 nM and 0.1 nM)) | C (C represents a pEC50 value<6.7 (EC50>200 nM)) | 
Cc1cc(Nc2cc3ncc(S(C)(=O)=O)cc3c(N[C@@H]3C[C@H]4CC[C@@H](C3)N4CCC#N)n2)n[nH]1 [Example 6-50] | A (A represents a pKi value≥10 (Ki≤0.1 nM)) | A (A represents a pKi value≥10 (Ki≤0.1 nM)) | C (C represents a pEC50 value<6.7 (EC50>200 nM)) | 
Cc1cc(Nc2cc3ncc(S(C)(=O)=O)cc3c(N[C@@H]3C[C@H]4CC[C@@H](C3)N4C(=O)C(F)F)n2)n[nH]1 [Example 6-52] |  |  |  | IC50 [2, 3]: > 200 nM; Ki (JAK2): 0.1 to 1 nM; Ki (JAK1): 0.1 to 1 nM
Cc1cc(Nc2cc3ncc(S(C)(=O)=O)cc3c(N[C@@H]3C[C@H]4CC[C@@H](C3)N4CCF)n2)n[nH]1 [Example 6-54] | B (B represents a pKi value between 9 and 10 (Ki between 1 nM and 0.1 nM)) | B (B represents a pKi value between 9 and 10 (Ki between 1 nM and 0.1 nM)) | C (C represents a pEC50 value<6.7 (EC50>200 nM)) | 
COc1ccnc2cc(Nc3cc(C)[nH]n3)nc(N[C@@H]3C[C@H]4CC[C@@H](C3)N4CC(F)F)c12 [Example 7-8] | B (B represents a pKi value between 9 and 10 (Ki between 1 nM and 0.1 nM)) | B (B represents a pKi value between 9 and 10 (Ki between 1 nM and 0.1 nM)) | B (B represents a pEC50 value between 6.7 and 7.5 (EC50 between 200 nM and 32 nM)) | 
CCS(=O)(=O)N1[C@@H]2CC[C@H]1C[C@H](Nc1nc(Nc3cc(C)[nH]n3)c(F)c3ncccc13)C2 [Example 8-3] | B (B represents a pKi value between 9 and 10 (Ki between 1 nM and 0.1 nM)) | B (B represents a pKi value between 9 and 10 (Ki between 1 nM and 0.1 nM)) | A (A represents a pEC50 value≥7.5 (EC50≤32 nM)) | 
Cc1cnc2c(F)c(Nc3cc(C)[nH]n3)nc(N[C@@H]3C[C@H]4CC[C@@H](C3)N4S(C)(=O)=O)c2c1 [Example 8-17] | A (A represents a pKi value≥10 (Ki≤0.1 nM)) | A (A represents a pKi value≥10 (Ki≤0.1 nM)) | B (B represents a pEC50 value between 6.7 and 7.5 (EC50 between 200 nM and 32 nM)) | 
Cc1cnc2c(F)c(Nc3cc(C)[nH]n3)nc(N[C@@H]3C[C@H]4CC[C@@H](C3)N4CCC#N)c2c1 [Example 8-18] | B (B represents a pKi value between 9 and 10 (Ki between 1 nM and 0.1 nM)) | B (B represents a pKi value between 9 and 10 (Ki between 1 nM and 0.1 nM)) | B (B represents a pEC50 value between 6.7 and 7.5 (EC50 between 200 nM and 32 nM)) | 
Cc1cnc2c(F)c(Nc3cc(C)[nH]n3)nc(N[C@@H]3C[C@H]4CC[C@@H](C3)N4S(=O)(=O)N3CC(C#N)C3)c2c1 [Example 8-19] | B (B represents a pKi value between 9 and 10 (Ki between 1 nM and 0.1 nM)) | B (B represents a pKi value between 9 and 10 (Ki between 1 nM and 0.1 nM)) | C (C represents a pEC50 value<6.7 (EC50>200 nM)) | 
Cc1cnc2c(F)c(Nc3cc(C)[nH]n3)nc(N[C@@H]3C[C@H]4CCC[C@@H](C3)N4CCC#N)c2c1 [Example 8-21] | B (B represents a pKi value between 9 and 10 (Ki between 1 nM and 0.1 nM)) | B (B represents a pKi value between 9 and 10 (Ki between 1 nM and 0.1 nM)) | B (B represents a pEC50 value between 6.7 and 7.5 (EC50 between 200 nM and 32 nM)) | 
